Measurements published in PubChem BioAssay AID242 (DTP/NCI, 2004).
Several values for one entry are separate records, joined by “and”; a condition that tells them apart may be missing. Identical values can stand only once. Inconclusive results and toxic doses are left out. How the source made its calls: active means survival T/C of 150% or more; inactive means T/C below 125% in these data.

System: BDF1 mice, Lymphoma 8 ip, survival T/C
Assay: NCI In Vivo Anticancer Drug Screen. Data for tumor model Lymphoma 8 (intraperitoneal) in B6D2F1 (BDF1) mice
Conditions: higher = longer survival
Method: The antitumor activity of compounds was measured in mice bearing transplantable tumors. Survival or tumor size were measured and the results are expressed as the measurement made in the treated group (T) divided by the measurement made in the vehicle treated control group (C). The tumor model used in this assay is Lymphoma 8 (intraperitoneal) in B6D2F1 (BDF1) mice

[1] = endpoint: survival time, mean or median, dose: 5.0 mg/kg/injection, schedule: Q01DX010 (ip), vehicle: saline
[2] = endpoint: survival time, mean or median, dose: 10.0 mg/kg/injection, schedule: Q01DX010 (ip), vehicle: saline
[3] = endpoint: survival time, mean or median, dose: 20.0 mg/kg/injection, schedule: Q01DX010 (ip), vehicle: saline
[4] = endpoint: survival time, mean or median, dose: 8.0 mg/kg/injection, schedule: Q01DX010 (ip), vehicle: saline
[5] = endpoint: survival time, mean or median, dose: 31.3 mg/kg/injection, schedule: Q01DX010 (ip), vehicle: saline
[6] = endpoint: survival time, mean or median, dose: 62.5 mg/kg/injection, schedule: Q01DX010 (ip), vehicle: saline
[7] = endpoint: survival time, mean or median, dose: 62.5 mg/kg/injection, schedule: Q01DX015 (ip), vehicle: carboxymethylcellulose (CMC)
[8] = endpoint: survival time, mean or median, dose: 125.0 mg/kg/injection, schedule: Q01DX015 (ip), vehicle: carboxymethylcellulose (CMC)
[9] = endpoint: survival time, mean or median, dose: 250.0 mg/kg/injection, schedule: Q01DX015 (ip), vehicle: carboxymethylcellulose (CMC)
[10] = endpoint: survival time, mean or median, dose: 50.0 mg/kg/injection, schedule: Q01DX010 (ip), vehicle: saline
[11] = endpoint: survival time, mean or median, dose: 100.0 mg/kg/injection, schedule: Q01DX010 (ip), vehicle: saline
[12] = endpoint: survival time, mean or median, dose: 200.0 mg/kg/injection, schedule: Q01DX010 (ip), vehicle: saline
[13] = endpoint: survival time, mean or median, dose: 3.13 mg/kg/injection, schedule: Q01DX010 (ip), vehicle: saline
[14] = endpoint: survival time, mean or median, dose: 6.25 mg/kg/injection, schedule: Q01DX010 (ip), vehicle: saline
[15] = endpoint: survival time, mean or median, dose: 12.5 mg/kg/injection, schedule: Q01DX010 (ip), vehicle: saline
[16] = endpoint: survival time, mean or median, dose: 25.0 mg/kg/injection, schedule: Q01DX010 (ip), vehicle: saline
[17] = endpoint: survival time, mean or median, dose: 125.0 mg/kg/injection, schedule: Q01DX010 (ip), vehicle: saline
[18] = endpoint: survival time, mean or median, dose: 250.0 mg/kg/injection, schedule: Q01DX010 (ip), vehicle: saline
[19] = endpoint: survival time, mean or median, dose: 40.0 mg/kg/injection, schedule: Q01DX010 (ip), vehicle: saline
[20] = endpoint: survival time, mean or median, dose: 80.0 mg/kg/injection, schedule: Q01DX010 (ip), vehicle: saline

Measured: T/C

O=NN(CCCl)C(=O)NCCCl
inactive: endpoint: survival time, mean or median, dose: 2.64 mg/kg/injection, schedule: Q01DX015 (ip), vehicle: saline 90 % of control

Cc1cc(N(CCCl)CCCl)ccc1N=Nc1ccccc1C(=O)O
inactive: [1] 91 % of control and 107 % of control | [2] 108 % of control and 110 % of control | [3] 108 % of control

C[n+]1c2ccccc2nc2c(N)cc(N)cc21
inactive: [4] 121 % of control | endpoint: survival time, mean or median, dose: 12.0 mg/kg/injection, schedule: Q01DX010 (ip), vehicle: saline 117 % of control | endpoint: survival time, mean or median, dose: 18.0 mg/kg/injection, schedule: Q01DX010 (ip), vehicle: saline 107 % of control

CCn1cnc2c(=S)nc[nH]c21
inactive: endpoint: survival time, mean or median, dose: 15.6 mg/kg/injection, schedule: Q01DX010 (ip), vehicle: saline 91 % of control and 100 % of control | [5] 100 % of control | [6] 92 % of control and 100 % of control

COc1ccc(CSc2ncnc3nc[nH]c23)cc1
inactive: [7] 95 % of control | [8] 92 % of control | [9] 87 % of control

Nc1nc(F)nc2c1ncn2C1OC(CO)C(O)C1O (centres undefined)
inactive: endpoint: survival time, mean or median, dose: 0.75 mg/kg/injection, schedule: Q01DX015 (ip), vehicle: saline 88 % of control

N[C@H](C(=O)O)[C@@H]1CC(Cl)=NO1
inactive: endpoint: median survival time, dose: 0.38 mg/kg/injection, schedule: Q01DX009 (ip), vehicle: saline 92 % of control | endpoint: median survival time, dose: 0.75 mg/kg/injection, schedule: Q01DX009 (ip), vehicle: saline 78 % of control | endpoint: median survival time, dose: 1.5 mg/kg/injection, schedule: Q01DX009 (ip), vehicle: saline 69 % of control | endpoint: median survival time, dose: 3.0 mg/kg/injection, schedule: Q01DX009 (ip), vehicle: saline 74 % of control

CS(=O)(=O)OCCN(CCOS(C)(=O)=O)c1ccc(N=O)cc1
inactive: endpoint: survival time, mean or median, dose: 0.25 mg/kg/injection, schedule: Q01DX010 (ip), vehicle: saline 121 % of control | endpoint: survival time, mean or median, dose: 0.5 mg/kg/injection, schedule: Q01DX010 (ip), vehicle: saline 110 % of control | endpoint: survival time, mean or median, dose: 63.0 micrograms/kg/injection, schedule: Q01DX010 (ip), vehicle: saline 113 % of control | endpoint: survival time, mean or median, dose: 125.0 micrograms/kg/injection, schedule: Q01DX010 (ip), vehicle: saline 120 % of control | endpoint: survival time, mean or median, dose: 500.0 micrograms/kg/injection, schedule: Q01DX010 (ip), vehicle: saline 123 % of control

COc1ccc(C2NCCS2)cc1 (centres undefined)
inactive: [10] 103 % of control | [11] 100 % of control | [12] 106 % of control | endpoint: survival time, mean or median, dose: 400.0 mg/kg/injection, schedule: Q01DX010 (ip), vehicle: saline 100 % of control

C[C@H]1C(=O)O[C@@H]2CCN3CC=C(COC(=O)[C@](C)(O)[C@@]1(C)O)[C@H]23
inactive: [13] 116 % of control | [14] 100 % of control | [15] 104 % of control | [16] 104 % of control

CCN(CC)c1ccc2cc3ccc(=[N+](CC)CC)cc-3oc2c1
inactive: endpoint: survival time, mean or median, dose: 1.0 mg/kg/injection, schedule: Q01DX010 (ip), vehicle: saline 96 % of control

CC(Cl)CN(Cc1cc(O)c(CN(CC(C)Cl)CC(C)Cl)cc1O)CC(C)Cl (centres undefined)
inactive: [7] 100 % of control | [8] 95 % of control | [9] 94 % of control | endpoint: survival time, mean or median, dose: 500.0 mg/kg/injection, schedule: Q01DX015 (ip), vehicle: carboxymethylcellulose (CMC) 88 % of control and 91 % of control | endpoint: survival time, mean or median, dose: 750.0 mg/kg/injection, schedule: Q01DX015 (ip), vehicle: carboxymethylcellulose (CMC) 90 % of control | endpoint: survival time, mean or median, dose: 1000.0 mg/kg/injection, schedule: Q01DX015 (ip), vehicle: carboxymethylcellulose (CMC) 90 % of control

CCCNc1ncnc2[nH]ncc12
inactive: [13] 104 % of control (2×) and 105 % of control | [14] 105 % of control and 106 % of control | [15] 90 % of control and 100 % of control and 114 % of control

Nc1nc(SCc2ccccc2)c2[nH]cnc2n1
inactive: [4] 91 % of control and 107 % of control | endpoint: survival time, mean or median, dose: 16.0 mg/kg/injection, schedule: Q01DX010 (ip), vehicle: saline 100 % of control and 103 % of control | endpoint: survival time, mean or median, dose: 32.0 mg/kg/injection, schedule: Q01DX010 (ip), vehicle: saline 100 % of control and 103 % of control | endpoint: survival time, mean or median, dose: 64.0 mg/kg/injection, schedule: Q01DX010 (ip), vehicle: saline 91 % of control

S=P(N1CCOCC1)(N1CC1)N1CC1
inactive: endpoint: survival time, mean or median, dose: 2.5 mg/kg/injection, schedule: Q01DX010 (ip), vehicle: saline 100 % of control and 113 % of control | [1] 104 % of control and 109 % of control | [2] 113 % of control | [3] 86 % of control and 122 % of control

CCCSc1ncnc2nc[nH]c12
inactive: [5] 100 % of control and 113 % of control | [6] 95 % of control and 100 % of control | [17] 95 % of control and 104 % of control | [18] 86 % of control

CS(=O)(=O)OCCCl
inactive: endpoint: survival time, mean or median, dose: 9.4 mg/kg/injection, schedule: Q01DX010 (ip), vehicle: saline 107 % of control | endpoint: survival time, mean or median, dose: 18.8 mg/kg/injection, schedule: Q01DX010 (ip), vehicle: saline 91 % of control and 96 % of control | endpoint: survival time, mean or median, dose: 37.5 mg/kg/injection, schedule: Q01DX010 (ip), vehicle: saline 91 % of control and 100 % of control | endpoint: survival time, mean or median, dose: 75.0 mg/kg/injection, schedule: Q01DX010 (ip), vehicle: saline 91 % of control and 96 % of control

COc1cc([C@@H]2c3cc4c(cc3[C@H](O)[C@H]3COC(=O)[C@@H]23)OCO4)cc(OC)c1OC
inactive: endpoint: survival time, mean or median, dose: 10.0 mg/kg/injection, schedule: Q01DX015 (ip), vehicle: carboxymethylcellulose (CMC) 98 % of control | endpoint: survival time, mean or median, dose: 20.0 mg/kg/injection, schedule: Q01DX015 (ip), vehicle: carboxymethylcellulose (CMC) 119 % of control

O=c1[nH]c(=O)n(C2CC(O)C(CO)O2)cc1F (centres undefined)
inactive: [2] 103 % of control | [3] 100 % of control | [19] 114 % of control | [20] 96 % of control

CCOC(N)=O
inactive: [17] 105 % of control | [18] 100 % of control | endpoint: survival time, mean or median, dose: 500.0 mg/kg/injection, schedule: Q01DX010 (ip), vehicle: saline 100 % of control

COc1ccccc1CNCCO
inactive: [10] 103 % of control | [11] 103 % of control | [12] 93 % of control

CN(N=O)C(=O)NC(C=O)C(O)C(O)C(O)CO (centres undefined)
inactive: [15] 96 % of control | endpoint: survival time, mean or median, dose: 25.0 mg/kg/injection, schedule: Q01DX008 (ip), vehicle: saline 115 % of control | [16] 100 % of control | endpoint: survival time, mean or median, dose: 50.0 mg/kg/injection, schedule: Q01DX008 (ip), vehicle: saline 111 % of control | [10] 121 % of control | endpoint: survival time, mean or median, dose: 100.0 mg/kg/injection, schedule: Q01DX008 (ip), vehicle: saline 115 % of control | [11] 121 % of control

COc1cc(-c2ccc(Nc3ccccc3C(=O)O)c(OC)c2)ccc1N
inactive: [3] 92 % of control and 100 % of control | [19] 100 % of control | [20] 92 % of control and 120 % of control

CN(Cc1cnc2nc(N)nc(N)c2n1)c1ccc(C(=O)N[C@@H](CCC(=O)O)C(=O)O)cc1
inactive: endpoint: median survival time, dose: 1.0 mg/kg/injection, schedule: Q01DX009 (ip), vehicle: sodium bicarbonate 118 % of control | endpoint: median survival time, dose: 2.0 mg/kg/injection, schedule: Q01DX009 (ip), vehicle: sodium bicarbonate 93 % of control

C=CCSc1nc(N)nc2nc[nH]c12
inactive: endpoint: survival time, mean or median, dose: 16.0 mg/kg/injection, schedule: Q01DX015 (ip), vehicle: other 101 % of control | endpoint: survival time, mean or median, dose: 31.0 mg/kg/injection, schedule: Q01DX015 (ip), vehicle: other 100 % of control | endpoint: survival time, mean or median, dose: 62.5 mg/kg/injection, schedule: Q01DX015 (ip), vehicle: other 90 % of control

Cc1cc2nc3c(=O)[nH]c(=O)nc-3n(CC(O)C(O)C(O)C(O)CO)c2cc1C (centres undefined)
inactive: endpoint: survival time, mean or median, dose: 50.0 mg/kg/injection, schedule: Q01DX015 (ip), vehicle: carboxymethylcellulose (CMC) 90 % of control | endpoint: survival time, mean or median, dose: 200.0 mg/kg/injection, schedule: Q01DX015 (ip), vehicle: carboxymethylcellulose (CMC) 87 % of control

CC(=O)OCC1OC(n2cnc3c(=S)nc(N)[nH]c32)C(OC(C)=O)C1OC(C)=O (centres undefined)
inactive: endpoint: survival time, mean or median, dose: 12.5 mg/kg/injection, schedule: Q01DX015 (ip), vehicle: other 106 % of control | endpoint: survival time, mean or median, dose: 25.0 mg/kg/injection, schedule: Q01DX015 (ip), vehicle: other 107 % of control | endpoint: survival time, mean or median, dose: 50.0 mg/kg/injection, schedule: Q01DX015 (ip), vehicle: other 97 % of control
